The METLIN SMRT retention time set (Domingo-Almenara et al. 2019)

assay: gradient 5% acetonitrile 3 min, to 50% in 2 min, to 85% in 15 min, held 3 min, 100 µL/min; conditions: column: Zorbax Extend-C18 2.1 x 50 mm; eluents: water / acetonitrile, 0.1% formic acid
How it was run: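 Using water and acetonitrile that each contained 0.1% formic acid, mixtures of ~100 pure standards were separated at 100 μL/min on a Zorbax Extend-C18 column (2.1 × 50 mm, 1.8 μm). The HPLC fed a quadrupole time-of-flight mass spectrometer working in positive and negative ionization mode, with dead and dwell volumes of 40 μL and 900 μL. Data were acquired over 3 months. Retention time was read from computationally picked adduct peaks after manual inspection of each.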

Going from `CN1C(=O)c2cc(C(=O)NCc3cccc(Cl)c3)nn2CC1(C)C(=O)NCc1ccccc1` (centres undefined) to `CSc1ccc(CNC(=O)c2cn3cccc(C)c3n2)cc1`, the RP-LC retention time falls from 793 s to 755 s.

Going from `Cc1nc(-c2noc(-c3cccnc3)n2)cn1CC(=O)N1CCc2ccccc21` to `Cc1ccc(-c2nc(-c3ccc4nncn4c3)no2)cc1`, the RP-LC retention time rises from 714 s to 870 s.

Compared with `COc1ccc(-c2csc(NC(=O)COc3ccccc3Cl)n2)cc1Br`, `COc1ccc(NC(=O)c2ccc(Cl)s2)c2ccccc12` is lower in RP-LC retention time: 1220 s for the first, 920 s for the second.

Compared with `O=C1CCc2cc(S(=O)(=O)NCc3ccco3)cc3c2N1CCC3`, `CCc1ccccc1NC(=O)CN1C(=O)CCCc2cc(S(=O)(=O)N3CCCC3)ccc21` is higher in RP-LC retention time: 677 s for the first, 845 s for the second.

Going from `COCCOCc1nc(C2CCCN2C(=O)c2ccsc2)no1` (centres undefined) to `COCCc1noc([C@@H]2CC(F)(F)CN2C(=O)c2coc(C)n2)n1`, the RP-LC retention time rises from 679 s to 705 s.

First: O=C(CC1CCCC1)N1CCN(c2nnc3ccc(C(F)(F)F)cn23)CC1
Second: O=C(C1CCN(c2cnc3nccnc3c2)CC1)N1CCN(C2CCCCC2)CC1
The RP-LC retention time of the first is higher: 797 s for the first, 572 s for the second.

Going from `O=C(NCc1ccc(F)cc1F)C1CCN(c2cncnc2N2CCOCC2)CC1` to `O=C(O)c1cc(NS(=O)(=O)c2cccc(F)c2)ccc1N1CCCC(CN2CCCC2)C1` (centres undefined), the RP-LC retention time falls from 618 s to 594 s.

First: CCn1cccc1-c1nc(C)c(C(=O)Nc2ccc(C)c(C)c2)s1
Second: Cc1nc(NC(=O)Cc2c(C)[nH]c(=O)[nH]c2=O)sc1C(=O)Nc1ccccc1
The RP-LC retention time of the first is higher: 1270 s for the first, 617 s for the second.

First: Cn1cnc2c(C(=O)NCCC3=CCCCC3)nn(-c3ccc(Cl)cc3)c2c1=O
Second: COC(=O)c1ccc2c(=O)n(-c3ccc4c(c3)OCO4)c(N3CCCC3)nc2c1
The RP-LC retention time of the first is higher: 959 s for the first, 885 s for the second.

Going from `Cc1oc(-c2[nH]ncc2C(=O)N2CCCC2)cc1S(=O)(=O)NCc1ccc(F)cc1` to `Cc1cc(F)ccc1NC(=O)C1CCN(S(=O)(=O)c2c(C)[nH]c(C)c2C(=O)N2CCCC2)CC1`, the RP-LC retention time falls from 709 s to 691 s.

First: O=C(O)c1ccc(Nc2nc(-c3ccc(Cl)cc3Cl)nc3ccccc23)cc1
Second: CCCOc1ccc(CNC(=O)C2CCCN(c3ncnc4c3oc3ccccc34)C2)cc1 (centres undefined)
The RP-LC retention time of the first is lower: 828 s for the first, 889 s for the second.

Going from `CC(C)(C)NC(=O)N1CCC(CNC(=O)c2ccc3nsnc3c2)CC1` to `CCOC(=O)C(C)Sc1nnc(CNC(=O)c2ccc(OC)cc2)n1C1CCCCC1` (centres undefined), the RP-LC retention time rises from 679 s to 805 s.

First: COc1ccc(NC(=O)Cn2nc(N3CCOCC3)c3ccccc3c2=O)c(OC)c1
Second: Cc1cc(C)c(NC(=O)Cn2nc(N3CCCC(C)C3)c3ccccc3c2=O)c(C)c1 (centres undefined)
The RP-LC retention time of the first is lower: 766 s for the first, 1180 s for the second.

First: COc1ccc(-c2nnc(CC(=O)NCC3CC3)o2)cc1
Second: COc1ccc(-c2cc(N3CCN(C(=O)Nc4cc(OC)cc(OC)c4)CC3)ncn2)cc1
The RP-LC retention time of the first is higher: 732 s for the first, 672 s for the second.

Compared with `COc1cccc(-n2c(=O)c3sccc3n(Cc3nc(-c4ccc(C)c(C)c4)no3)c2=O)c1`, `CCC(C)NC(=O)Cn1c(=O)c(S(=O)(=O)c2ccccc2)cc2cc(C)ccc21` (centres undefined) is lower in RP-LC retention time: 1160 s for the first, 879 s for the second.

First: FC(F)(F)c1ccc(/C=C/c2nc(COc3ccc(CCCCn4ccnn4)cc3)co2)cc1
Second: O=C(c1cccnn1)N1CC(F)(F)C[C@H]1c1nnc(-c2ccccc2)o1
The RP-LC retention time of the first is higher: 1170 s for the first, 746 s for the second.

Compared with `CCNC(=O)Nc1ccc2c(c1)CN(C(=O)Nc1ccc3c(c1)OCCO3)CCO2`, `Cc1cc(C)c2[nH]c3c(c(=O)c2c1)CN(CC(=O)Nc1ccc2c(c1)OCCO2)CC3` is lower in RP-LC retention time: 706 s for the first, 604 s for the second.

Compared with `Cc1cccc(NC(=O)Cn2nc3n(c2=O)CCCCC3)c1C`, `Cc1nc(NC2CCCCC2)sc1C(=O)Nc1cccc(F)c1` is higher in RP-LC retention time: 675 s for the first, 872 s for the second.

Going from `CCC1=NS(=O)(=O)c2cccnc2N1c1ccc2c(c1)OCCO2` to `Cc1cc(=O)n(CC(=O)Nc2ccc3c(c2)OCO3)c(N2CCc3ccccc3C2)n1`, the RP-LC retention time falls from 800 s to 742 s.

Compared with `CCOC(=O)c1[nH]c(C)c(C(=O)N2CCC(CC(=O)NC3CCCC3)CC2)c1C`, `CCc1nn2c(S(=O)(=O)NC3CCCC3)c(C)nc2s1` is higher in RP-LC retention time: 696 s for the first, 799 s for the second.

First: Cc1cc2c(cc1NC(=O)c1cccs1)n(C)c(=O)n2C
Second: Cc1ccc(C)c(C(=O)CC2(O)C(=O)N(C)c3ccccc32)c1 (centres undefined)
The RP-LC retention time of the first is lower: 668 s for the first, 818 s for the second.

Going from `COc1ccccc1C(CNC(=O)c1cc(=O)c2ccc(Br)cc2o1)N(C)C` (centres undefined) to `O=C(c1ccc2nc[nH]c2c1)N1CCN(c2cc(-c3cccs3)[nH]n2)CC1`, the RP-LC retention time falls from 669 s to 594 s.
